# Assays:
# Type in all cases: biochemical
# [1] = tested on: Apaf-1 (apoptosome); assay: Apoptosome formation in HeLa cell S-100, gel-filtration chromatography and Western blot against Apaf-1
# Protocol: In order to find out how this small molecule ([…]) promotes activation of caspase-3, apoptosome formation was analyzed using gel-filtration chromatography followed by Western blot analysis against Apaf-1 (Zou H et al., Cell 90:405-413, 1997). Other methods known to those of ordinary skill in the art may also be used for such an analysis.
# [2] = tested on: caspase-3 (procaspase-3 cleavage); assay: Caspase-3 activation reconstituted with HeLa S-100 fractions (Q-ft, Q30, Q100) and purified/recombinant proteins
# Description: To study the mechanism, HeLa cell S-100 extracts were fractionated using an anion exchange column. […] The first fraction, Q-ft, flew through the column and contained cytochrome c (Liu et al., Cell 86:147 (1996)). The second fraction, Q30, was eluted with 0.3 M NaCl and contained Apaf-1 (Zou et al., Cell 90:405 (1997)) and procaspase-9 (Li et al., Cell 91:479 (1997)). The third fraction, Q100, was eluted with 1 M NaCl. These three fractions were then used in different combinations to search for proteins that might mediate the PETCM effect.
# The inhibitory activity was assayed by adding column fractions to the mixture of Q30/cytochrome c/PHAP/dATP.
# Ten ml of HeLa S-100 (˜60 mg total protein) was loaded on a 1-ml HiTrap Q column (Pharmacia) pre-equilibrated with Buffer A (i.e., 20 mM Hepes-KOH, pH7.5, 10 mM KCl, 1.5 mM Mg Cl2, 1 mM sodium EDTA and 1 mM sodium EGTA, 1 mM dithiothreitol, and 0.1 mM PMSF). The flowthrough (Q-ft) was collected. After being washed with 10-ml of Buffer A, the column was eluted with 10-ml of Buffer A containing 300 mM NaCl, and the eluted protein peak ([…]) was collected (Q30). Subsequently, the column was eluted with Buffer A containing 1 M NaCl, and the protein peak (−3 ml) was collected and dialyzed for overnight (Q100).
# [3] = tested on: apoptosome (Apaf-1/caspase-9); assay: Apoptosome formation and caspase-9 activation in reconstituted system (Q30, cytochrome c, dATP)
# Protocol: FIG. 5 illustrates regulation of apoptosome by ProT and PHAP. FIG. 5(A) illustrates that PHAP accelerates caspase-3 activation after PETCM antagonizes the inhibitory activity of ProT. FIG. 5(B) illustrates that ProT inhibits apoptosome formation, and PETCM can antagonize the inhibitory activity. FIG. 5(C) illustrates that PHAP enhances caspase-9 activation. Apoptosome formation was measured as described in FIG. 1.
# Subsequently, regulation of apoptosome by these players was tested. […] PETCM promotes caspase-3 activation by removing the inhibition of ProT on apoptosome formation, allowing PHAPs to stimulate apoptosome activity.
# [4] = tested on: caspase-3; assay: Caspase-3 activation in HeLa cell lysate/S-100 (Ac-DEVD-pNA cleavage, HTS)
# Protocol: Other means of measuring caspoase-3 activation are also encompassed herein and are readily known to those of ordinary skill in the art.
# With respect to Example I, the high throughput screening (HTS) was essentially a cell-lysate assay in which the endpoint, activation of caspase-3, was monitored by the cleavage of a calorimetric substrate. HeLa cell lysate was prepared by Cellex Bioscience (Minneapolis, Minn.). This lysate was thawed and centrifuged before use (15K rpm in a JA20 Beckman rotor, Fullerton, Calif.). […] The plates were allowed to incubate for three to four hours. When 90% of the Ac-DEVD-pNA (Bachem L1945) was converted by the activated capsase-3 in the control plate, the screening plates were read again at 390 nm. The change in absorbency was scaled to the fully-activated control (cytochrome c) and the negative control (no compound).
# [5] = tested on: extracts from human tumor cells (caspase activation); assay: Response of extracts from a battery of human tumor cells to PETCM; details: colon cancer, prostate cancer, promyelocytic leukemia, T cell leukemia, bone marrow leukemia, malignant melanoma, lymphoma, glioblastoma cells
# Protocol: Extracts from a battery of human tumor cells were also screened for their response to PETCM. It was determined that many human cancer lines, including colon cancer, prostate cancer, promyelocytic leukemia, T cell leukemia, bone marrow leukemia, malignant melanoma, lymphoma, and glioblastoma cells were responsive. […] PETCM and the PETCM-stimulated caspase activation pathway are therefore of fundamental and clinical significance with respect to malignant mammalian cells. Thus, the present invention encompasses a method of stimulating caspase activity in malignant cells comprising exposing said cells to PETCM or administering PETCM to said cells.
# [6] = tested on: caspase-3; assay: Caspase-3 activation in extracts from RNAi treated HeLa cells; details: extracts from control RNAi treated-cells (FIG. 6D)
# Description: (SEQ ID NO:7) and […] (SEQ ID NO:9) and […]
compound,measurement,setting,value
"Nc1ncnc2c1ncn2[C@H]1C[C@H](O)[C@@H](COP(=O)(O)OP(=O)(O)OP(=O)(O)O)O1 [dATP, 2′-deoxyadenosine-5′-triphosphate, reference compound]",apoptosome formation (Apaf-1 shift),[1]; S-100 incubated with 1 mM dATP,most of the Apaf-1 was shifted to the size of ˜1 million Dalton
same,caspase-3 activation,"[2]; Q-ft + Q30 + Q100, 10 μM dATP (lane 3)",little caspase-3 activation was observed
same,caspase-3 activation,"[2]; Q-ft + Q30 + Q100, 1 mM dATP (lane 2)",robust caspase-3 activation
"PHAPI: recombinant His-tagged PHAPI, putative tumor suppressor protein that stimulates caspase activation",caspase-3 activation,"[2]; Q30 fraction plus cytochrome c and 10 μM dATP (FIG. 5A, lane 2)",stimulated caspase-3 activation
same,apoptosome formation,[3]; presence of PHAPI,did not affect the efficiency of apoptosome formation
same,caspase-9 activation,[3]; presence of PHAPI (FIG. 5C),more activated caspase-9 was observed
"OC(Cc1ccncc1)C(Cl)(Cl)Cl (stereo not drawn) [PETCM, alpha-(trichloromethyl)-4-Pyridineethanol]",efficiency in activating caspase-3 compared with dATP,[4]; 0.2 mM PETCM vs 1.0 mM dATP,more efficient in activating caspase-3 than 1.0 mM dATP
same,DEVD activity of HeLa S-100,"[4]; FIG. 1(B), increasing amounts of PETCM",stimulates DEVD activity of HeLa S-100 in a dose-dependent manner
same,efficiency of apoptosome formation compared with dATP,[1]; 0.2 mM PETCM vs 1 mM dATP,better than 1 mM dATP
same,apoptosome formation (Apaf-1 shift),[1]; S-100 incubated with 0.2 mM PETCM,Apaf-1 was also shifted to the position of apoptosome
same,response of human cancer line extracts to PETCM,[5],responsive
same,reversal of Q100 suppression of PHAP stimulatory activity,"[2]; PHAP with Q100 added back (FIG. 4A, lanes 5-6)",the suppression was reversed by the addition of PETCM
same,caspase-3 activation,"[2]; Q30, cytochrome c, 10 μM dATP, PHAPI, ProT, with PETCM (FIG. 5A, lane 4)",the inhibitory effect of ProT was reversed
same,caspase-3 activation,"[2]; Q-ft + Q30 + Q100, 0.2 mM PETCM with 10 μM dATP (lane 5)",caspase-3 activation was observed at 10 μM dATP
same,caspase-3 activation,"[2]; Q-ft + Q30 + Q100, PETCM, dATP completely omitted (lane 4)",No caspase-3 activation was seen
same,apoptosome formation,"[3]; FIG. 5B, ProT plus PETCM",relieved the blockage
same,"caspase-3 activation in extracts, PETCM requirement",[6],responsive to PETCM
